{"source": "patent US8691865B2", "about": "(AbbVie Inc., priority 2008, dated 2014)", "data": [{"molecular_target": "human Cav2.2 (Homo sapiens, UniProt Q00975)", "sequence (Q00975 whole entry)": "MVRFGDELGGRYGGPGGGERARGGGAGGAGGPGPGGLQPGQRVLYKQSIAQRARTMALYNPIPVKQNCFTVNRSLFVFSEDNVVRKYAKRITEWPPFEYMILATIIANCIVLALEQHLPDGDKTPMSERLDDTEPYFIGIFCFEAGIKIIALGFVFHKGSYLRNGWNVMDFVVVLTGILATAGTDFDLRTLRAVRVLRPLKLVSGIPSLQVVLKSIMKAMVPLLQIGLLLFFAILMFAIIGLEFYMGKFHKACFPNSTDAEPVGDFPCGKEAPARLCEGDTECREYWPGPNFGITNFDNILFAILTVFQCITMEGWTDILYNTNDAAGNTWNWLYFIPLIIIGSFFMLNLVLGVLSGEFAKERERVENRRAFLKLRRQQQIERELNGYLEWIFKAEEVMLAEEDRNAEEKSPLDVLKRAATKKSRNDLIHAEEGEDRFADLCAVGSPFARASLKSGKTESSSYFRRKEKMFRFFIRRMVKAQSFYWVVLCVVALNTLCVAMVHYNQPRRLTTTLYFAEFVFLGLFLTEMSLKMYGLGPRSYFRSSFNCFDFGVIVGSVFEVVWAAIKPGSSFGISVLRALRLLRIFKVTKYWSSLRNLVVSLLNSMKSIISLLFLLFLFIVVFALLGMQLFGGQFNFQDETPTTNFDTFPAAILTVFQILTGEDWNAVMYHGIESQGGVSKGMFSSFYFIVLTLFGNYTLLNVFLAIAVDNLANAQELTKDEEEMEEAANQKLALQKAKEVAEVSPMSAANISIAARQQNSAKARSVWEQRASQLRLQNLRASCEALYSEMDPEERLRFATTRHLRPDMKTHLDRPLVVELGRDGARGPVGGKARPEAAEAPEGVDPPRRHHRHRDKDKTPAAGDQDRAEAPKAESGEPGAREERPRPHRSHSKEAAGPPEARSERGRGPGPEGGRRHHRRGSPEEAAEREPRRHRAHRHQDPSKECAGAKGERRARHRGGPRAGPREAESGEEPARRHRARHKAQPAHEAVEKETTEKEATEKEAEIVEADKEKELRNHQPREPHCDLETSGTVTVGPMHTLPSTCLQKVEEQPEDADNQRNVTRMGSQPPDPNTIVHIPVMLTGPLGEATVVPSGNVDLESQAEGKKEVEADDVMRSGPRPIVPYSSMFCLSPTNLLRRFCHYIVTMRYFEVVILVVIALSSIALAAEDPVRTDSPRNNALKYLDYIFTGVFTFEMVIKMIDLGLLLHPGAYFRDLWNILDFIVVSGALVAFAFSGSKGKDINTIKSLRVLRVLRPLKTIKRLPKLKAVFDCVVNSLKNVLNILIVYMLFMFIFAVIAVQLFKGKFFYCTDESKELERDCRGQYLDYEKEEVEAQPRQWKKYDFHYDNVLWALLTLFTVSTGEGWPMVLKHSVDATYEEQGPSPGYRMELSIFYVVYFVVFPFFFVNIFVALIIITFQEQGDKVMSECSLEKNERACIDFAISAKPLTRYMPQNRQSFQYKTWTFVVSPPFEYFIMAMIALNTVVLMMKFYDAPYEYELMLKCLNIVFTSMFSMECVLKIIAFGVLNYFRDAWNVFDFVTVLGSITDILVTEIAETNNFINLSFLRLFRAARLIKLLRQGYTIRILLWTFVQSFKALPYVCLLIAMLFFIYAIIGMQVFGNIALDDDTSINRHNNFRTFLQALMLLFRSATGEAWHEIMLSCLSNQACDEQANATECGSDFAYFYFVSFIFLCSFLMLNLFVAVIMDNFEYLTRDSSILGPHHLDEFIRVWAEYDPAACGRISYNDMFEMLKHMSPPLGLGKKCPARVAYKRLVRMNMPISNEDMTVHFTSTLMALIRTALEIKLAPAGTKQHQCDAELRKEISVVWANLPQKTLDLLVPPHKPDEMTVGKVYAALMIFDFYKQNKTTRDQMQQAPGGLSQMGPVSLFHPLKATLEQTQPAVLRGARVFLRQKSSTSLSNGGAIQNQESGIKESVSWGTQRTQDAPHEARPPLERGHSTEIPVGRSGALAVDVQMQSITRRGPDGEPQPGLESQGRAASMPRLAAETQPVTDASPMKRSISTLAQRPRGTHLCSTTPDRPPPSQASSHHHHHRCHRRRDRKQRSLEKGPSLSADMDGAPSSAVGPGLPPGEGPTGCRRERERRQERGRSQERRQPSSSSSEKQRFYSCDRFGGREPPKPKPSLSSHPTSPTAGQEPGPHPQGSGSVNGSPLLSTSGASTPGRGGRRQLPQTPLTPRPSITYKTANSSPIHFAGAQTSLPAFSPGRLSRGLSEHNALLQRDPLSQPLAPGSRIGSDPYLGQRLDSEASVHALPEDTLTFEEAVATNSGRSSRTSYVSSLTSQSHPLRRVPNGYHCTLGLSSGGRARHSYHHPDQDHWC", "sequence (P54289 25-956 partner limits assumed)": "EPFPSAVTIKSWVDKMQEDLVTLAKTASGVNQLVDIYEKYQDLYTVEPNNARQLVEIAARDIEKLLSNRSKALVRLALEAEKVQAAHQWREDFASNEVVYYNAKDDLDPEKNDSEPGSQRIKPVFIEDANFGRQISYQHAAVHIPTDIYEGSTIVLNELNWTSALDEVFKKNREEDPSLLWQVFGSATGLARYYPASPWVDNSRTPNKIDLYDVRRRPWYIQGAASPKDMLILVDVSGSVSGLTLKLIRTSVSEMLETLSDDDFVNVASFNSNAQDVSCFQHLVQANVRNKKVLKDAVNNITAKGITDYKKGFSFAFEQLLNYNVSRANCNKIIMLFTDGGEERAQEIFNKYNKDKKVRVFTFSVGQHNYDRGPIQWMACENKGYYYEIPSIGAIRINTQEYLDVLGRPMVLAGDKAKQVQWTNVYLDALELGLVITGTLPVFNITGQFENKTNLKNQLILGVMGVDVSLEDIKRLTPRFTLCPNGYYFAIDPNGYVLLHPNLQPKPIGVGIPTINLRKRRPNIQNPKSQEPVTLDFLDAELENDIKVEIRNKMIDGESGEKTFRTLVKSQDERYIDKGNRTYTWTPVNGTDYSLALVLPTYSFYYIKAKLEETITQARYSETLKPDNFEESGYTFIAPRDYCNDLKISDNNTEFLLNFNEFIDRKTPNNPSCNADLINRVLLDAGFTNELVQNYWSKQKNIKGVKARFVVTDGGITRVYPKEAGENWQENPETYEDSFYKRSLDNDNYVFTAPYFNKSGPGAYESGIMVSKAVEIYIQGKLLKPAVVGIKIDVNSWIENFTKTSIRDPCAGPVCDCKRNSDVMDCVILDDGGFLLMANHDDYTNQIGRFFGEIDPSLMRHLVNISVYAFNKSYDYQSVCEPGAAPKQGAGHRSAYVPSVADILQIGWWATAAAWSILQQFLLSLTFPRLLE", "sequence (P54289 957-1103 partner limits assumed)": "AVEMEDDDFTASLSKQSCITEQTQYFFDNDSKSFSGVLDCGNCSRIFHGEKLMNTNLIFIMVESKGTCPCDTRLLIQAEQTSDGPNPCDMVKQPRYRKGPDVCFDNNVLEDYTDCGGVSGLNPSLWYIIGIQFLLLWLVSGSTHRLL", "sequence (P54284 whole entry partner)": "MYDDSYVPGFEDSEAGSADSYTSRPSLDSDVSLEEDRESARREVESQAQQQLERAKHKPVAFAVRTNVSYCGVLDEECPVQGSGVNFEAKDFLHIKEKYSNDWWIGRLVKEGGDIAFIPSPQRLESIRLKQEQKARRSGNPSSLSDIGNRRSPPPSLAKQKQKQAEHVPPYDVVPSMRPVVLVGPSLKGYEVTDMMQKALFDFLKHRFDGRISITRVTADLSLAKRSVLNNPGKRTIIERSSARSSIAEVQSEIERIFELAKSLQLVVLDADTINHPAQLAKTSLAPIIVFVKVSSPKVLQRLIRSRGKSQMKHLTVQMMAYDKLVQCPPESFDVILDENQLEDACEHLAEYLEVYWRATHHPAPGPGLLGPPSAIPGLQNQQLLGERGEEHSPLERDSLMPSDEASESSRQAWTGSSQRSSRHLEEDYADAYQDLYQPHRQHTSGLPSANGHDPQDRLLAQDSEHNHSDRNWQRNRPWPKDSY", "experiment": "Assessment of calcium channel activity using FLIPR (Ca2+ influx in IMR32 cells)", "type": "cell-based", "conditions": "not given", "in_short": "(§1)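 Human neuroblastoma IMR32 cells were seeded at 1−1.2×10^5 cells/well and cultured 48 h at 37 °C before FLIPR calcium influx measurement. Percent inhibition at each concentration was calculated against the no-inhibitor signal, and IC50 came from sigmoidal dose-response fits.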", "units": {"IC50": "µM"}, "values": [{"molecule": "CN[C@@H](CC(C)C)C(=O)N[C@@H]1CC[C@H]2CN(c3ccc(C(F)(F)F)cc3)C[C@H]21", "note": "[Example 740, N^2-methyl-N-{(3aS,4R,6aR)-2-[4-(trifluoromethyl)phenyl]octahydrocyclopenta[c]pyrrol-4-yl}-L-leucinamide]", "IC50": 2}, {"molecule": "Fc1ccc2[nH]c(CN[C@H]3CC[C@@H]4CN(c5ccc(C(F)(F)F)cc5)C[C@@H]43)cc2c1", "note": "[Example 615, (3aR,4S,6aS)-N-[(5-fluoro-1H-indol-2-yl)methyl]-2-[4-(trifluoromethyl)phenyl]octahydrocyclopenta[c]pyrrol-4-amine]", "IC50": 13.7}, {"molecule": "CC(C)C[C@@H](C(=O)N[C@H]1CC[C@@H]2CN(Cc3ccc(C(F)(F)F)cc3)C[C@@H]21)N(C)C(=O)OC(C)(C)C", "note": "[Example 308, tert-butyl methyl((S)-4-methyl-1-oxo-1-((3aR,4S,6aS)-2-(4-(trifluoromethyl)benzyl)octahydrocyclopenta[c]pyrrol-4-ylamino)pentan-2-yl)carbamate]", "IC50": 1.93}, {"molecule": "CC(C)C(C(=O)N[C@H]1CC[C@@H]2CN(CCCCc3ccccc3)C[C@@H]21)c1ccccc1", "note": "(stereo partly drawn) [Example 113, 3-methyl-2-phenyl-N-[(3aR,4S,6aS)-2-(4-phenylbutyl)octahydrocyclopenta[c]pyrrol-4-yl]butanamide]", "IC50": 0.59}]}, {"molecular_target": "human Cav2.2 (Homo sapiens, UniProt Q00975)", "experiment": "Assessment of calcium channel activity using FLIPR (Ca2+ influx in IMR32 cells)", "type": "cell-based", "conditions": "read-out: IC50 (μM) or percent inhibition (* indicates 3 minute incubation, otherwise 60 minute); IC50; 60 minute pre-incubation with compound; IMR32 cells, 80 mM KCl depolarization", "in_short": "as §1", "units": {"IC50": "µM"}, "values": [{"molecule": "O=C(N[C@@H]1CC[C@H]2CN(Cc3ccccc3)C[C@H]21)C(c1ccccc1)C1CCCC1", "note": "(relative stereo) [Example 8, N-[(3aS*,4R*,6aR*)-2-benzyloctahydrocyclopenta[c]pyrrol-4-yl]-2-cyclopentyl-2-phenylacetamide]", "IC50": 1.07}, {"molecule": "N-(tert-butoxycarbonyl)-N-((3aR,4S,6aS)-2-{[3-(trifluoromethyl)phenyl]sulfonyl}octahydrocyclopenta[c]pyrrol-4-yl)-L-phenylalaninamide [Example 269]", "IC50": 1.9}, {"molecule": "CC(C)C[C@H](NS(=O)(=O)C1CC1)C(=O)N[C@@H]1CC[C@H]2CN(Cc3cccc(C(F)(F)F)c3)C[C@H]21", "note": "[Example 172, N^2-(cyclopropylsulfonyl)-N^1-{(3aS,4R,6aR)-2-[3-(trifluoromethyl)benzyl]octahydrocyclopenta[c]pyrrol-4-yl}-L-leucinamide]", "IC50": 2.03}, {"molecule": "CC(C)C(C(=O)N[C@H]1CC[C@@H]2CN(Cc3cccc(C(F)(F)F)c3)C[C@@H]21)c1ccccc1", "note": "(stereo partly drawn) [Example 88, 3-methyl-2-phenyl-N-{(3aR,4S,6aS)-2-[3-(trifluoromethyl)benzyl]octahydrocyclopenta[c]pyrrol-4-yl}butanamide]", "IC50": 1.18}, {"molecule": "CC(C)C(C(=O)N(C)[C@@H]1CC[C@H]2CN(Cc3ccccc3)C[C@H]21)c1ccccc1", "note": "(relative stereo) [Example 215, N-[(3aS*,4R*,6aR*)-2-benzyloctahydrocyclopenta[c]pyrrol-4-yl]-N,3-dimethyl-2-phenylbutanamide]", "IC50": 1.99}, {"molecule": "O=C(CCC(c1ccc(F)cc1)c1ccc(F)cc1)N[C@H]1CC[C@H]2CN(Cc3cccc(C(F)(F)F)c3)C[C@H]21", "note": "(relative stereo) [Example 134, 4,4-bis(4-fluorophenyl)-N-{(3aS*,4S*,6aR*)-2-[3-(trifluoromethyl)benzyl]octahydrocyclopenta[c]pyrrol-4-yl}butanamide]", "IC50": 1.15}]}]}
